Assay results reported in patent publication US6215002A, “Pyrrolopyrrolone derivatives as inhibitors of neutrophil elastase” (priority 1996, dated 2001).
Counter-ions that a name gives are not always drawn.

What follows are compounds tested against T1, human neutrophil elastase (Homo sapiens, UniProt P08246) (assay: In vitro assay of human neutrophil elastase (HNE)). Details: 118 nM purified human neutrophil elastase, pH 8.6, 15 min incubation at 30° C., MeO-succinyl-alanyl-alanyl-prolyl-valyl-p-nitroanilide substrate; read-out: HNE IC50.
T1 sequence (P08246 30-267): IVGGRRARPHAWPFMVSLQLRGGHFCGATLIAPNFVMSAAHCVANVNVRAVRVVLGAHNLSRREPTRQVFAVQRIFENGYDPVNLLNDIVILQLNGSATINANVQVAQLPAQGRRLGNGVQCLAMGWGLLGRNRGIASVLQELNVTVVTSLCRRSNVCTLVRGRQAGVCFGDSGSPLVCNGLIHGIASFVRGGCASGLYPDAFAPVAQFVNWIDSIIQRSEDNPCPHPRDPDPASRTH
Assay type: biochemical
Procedure: In Vitro Assays of Human Neutrophil Elastase
118 nM purified human neutrophil elastase
Suitable concentrations of compound under test diluted with water from a 10 mM stock solution in dimethylsulphoxide. Values above are final concentrations after the addition of substrate solution (see below).
The mixture above is incubated for fifteen minutes at 30° C. at which time the remaining elastase activity is measured for 10 minutes in a BioTek 340i plate-reader, after the addition of 0.6 mM MeO-succinyl-alanyl-alanyl-prolyl-valyl-p-nitroanilide. The rate of increase in absorbance at 405 nm is proportional to elastase activity. Enzyme activity is plotted against concentration of inhibitor and an IC50 determined using curve fitting software.
1. The compounds were tested in the in vitro elastase test described earlier in the description.

SMILES	IC50 [nM]
CCC[C@H]1C(=O)N(S(C)(=O)=O)[C@H]2CCN(C(=O)CCN3CCCCC3)[C@H]12 (relative stereo) [Example 30, rel-(3R,3aR,6aS)-1-Methanesulfonyl-4-(3-piperidin-1-yl-propionyl)-3-propyl-hexahydro-pyrrolo[3,2-b]pyrrol-2-one hydrochloride]	189
CCC[C@H]1C(=O)N(S(=O)(=O)c2cccc3ccccc23)[C@H]2CCN(S(C)(=O)=O)[C@H]12 (relative stereo) [Example 31, rel-(3R,3aR,6aS)-4-Methanesulfonyl-1-(naphthalene-1-sulfonyl)-3-propyl-hexahydro-pyrrolo[3,2-b]pyrrol-2-one]	80
CCC[C@H]1C(=O)N(S(=O)(=O)c2cccc3ccccc23)[C@H]2CCN(S(=O)(=O)Cc3cccc(-c4nn[nH]n4)c3)[C@H]12 (relative stereo) [Example 32, rel-(3R,3aR,6aS)-1-(Naphthalene-1-sulfonyl)-3-propyl-4-[3-(1H-tetrazol-5-yl)-phenylmethanesulfonyl]-hexahydro-pyrrol[3,2-b]pyrrol-2-one]	286
CCC[C@H]1C(=O)N(S(=O)(=O)/C=C/c2ccccc2)[C@H]2CCN(S(=O)(=O)Cc3ccccc3)[C@H]12 (relative stereo) [Example 33, rel-(3R,3aR,6aS)-1-(2-Phenyl-(E)-ethenesulfonyl)-4-phenylmethanesulfonyl-3-propyl-hexahydro-pyrrolo[3,2-b]pyrrol-2-one]	458
CCC[C@H]1C(=O)N(S(=O)(=O)c2ccc3ccccc3c2)[C@H]2CCN(S(=O)(=O)Cc3ccccc3)[C@H]12 (relative stereo) [Example 34, rel-(3aR,6R,6aS)-1-(Naphthalene-2-sulfonyl)-4-phenylmethanesulfonyl-3-propyl-hexahydro-pyrrolo[3,2-b]pyrrol-2-one]	52
CC[C@H]1C(=O)N(S(=O)(=O)c2ccc3ccccc3c2)[C@H]2CCN(S(=O)(=O)CCCN3CCOCC3)[C@H]12 (relative stereo) [Example 35, rel-(3R,3aR,6aS)-3-Ethyl-4-(3-morpholin-4-yl)-propane-1-sulfonyl)-1-(naphthalene-2-sulfonyl)-hexahydro-pyrrolo[3,2-b]pyrrol-2-one meso-tartrate]	697
CCC[C@H]1C(=O)N(S(=O)(=O)c2cccc3ccccc23)[C@H]2CCN(S(=O)(=O)CCCN3CCOCC3)[C@H]12 (relative stereo) [Example 36, rel-(3R,3aR,6aS)-4-(3-Morpholin-4-yl-propane-1-sulfonyl)-1-(naphthalene-1-sulfonyl)-3-propyl-hexahydro-pyrrolo[3,2-b]pyrrol-2-one]	125
C=CC[C@H]1C(=O)N(S(=O)(=O)c2cccc(S(=O)(=O)N(C)C)c2)[C@H]2CCN(C(=O)OCc3ccccc3)[C@H]12 (relative stereo) [Example 37, rel-(3aS,6R,6aR)-6-Allyl-4-(3-dimethylsulfamoyl-benzenesulfonyl)-5-oxo-hexahydro-pyrrolo[3,2-b]pyrrole-1-carboxylic acid benzyl ester]	138
C=CC[C@H]1C(=O)N(S(=O)(=O)c2cccc([N+](=O)[O-])c2)[C@H]2CCN(C(=O)OCc3ccccc3)[C@H]12 (relative stereo) [Example 38, rel-(3aS,6R,6aR)-6-Allyl-4-(3-nitro-benzenesulfonyl)-5-oxo-hexahydro-pyrrolo[3,2-b]pyrrole-1-carboxylic acid benzyl ester]	205
CCC[C@H]1C(=O)N(S(=O)(=O)c2ccc3ccccc3c2)[C@H]2CCN(C(=O)CCCN3CCCCC3)[C@H]12 (relative stereo) [Example 39, rel-(3R,3aR,6aS)-1-(Naphthalene-2-sulfonyl)-4-(4-piperidin-l-yl-butyryl)-3-propyl-hexahydro-pyrrolo[3,2-b]pyrrol-2-one tartrate]	189
CCC[C@H]1C(=O)N(S(=O)(=O)c2ccc3ccccc3c2)[C@H]2CCN(C(=O)CCCCCN3CCCCC3)[C@H]12 (relative stereo) [Example 40, rel-(3R,3aR,6aS)-1-(Naphthalene-2-sulfonyl)-4-(6-piperidin-1-yl-hexanoyl)-3-propyl-hexahydro-pyrrolo[3,2-b]pyrrol-2-one tartrate]	50

More lines, now with the values ahead:

IC50 [nM]	SMILES
84	C=CC[C@H]1C(=O)N(S(=O)(=O)c2csc3ccccc23)[C@H]2CCN(C(=O)OCc3ccccc3)[C@H]12 (relative stereo) [Example 41, rel-(3aS,6R,6aR)-6-Allyl-4-(benzo[b]thiophene-3-sulfonyl)-5-oxo-hexahydro-pyrrolo[3,2-b]pyrrole-1-carboxylic acid benzyl ester]
78	C=CC[C@H]1C(=O)N(S(=O)(=O)c2cc3ccccc3s2)[C@@H]2CCN(C(=O)OCc3ccccc3)[C@H]21 (relative stereo) [Example 42, rel-(3aR,6R,6aS)-6-Allyl-4-(benzo[b]thiophene-2-sulfonyl)-5-oxo-hexahydro-pyrrolo[3,2-b]pyrrole-1-carboxylic acid benzyl ester]
408	C=CC[C@H]1C(=O)N(S(=O)(=O)CCc2ccccc2)[C@H]2CCN(C(=O)OCc3ccccc3)[C@H]12 (relative stereo) [Example 43, rel-(3aS,6R,6aR)-6-Allyl-5-oxo-4-(2-phenyl-ethanesulfonyl)-hexahydro-pyrrolo[3,2-b]pyrrole-1-carboxylic acid benzyl ester]
94	C=CC[C@H]1C(=O)N(S(=O)(=O)/C=C/c2ccccc2)[C@H]2CCN(C(=O)OCc3ccccc3)[C@H]12 (relative stereo) [Example 44, rel-(3aS,6R,6aR)-6-Allyl-5-oxo-4-(2-phenyl-(E)-ethenesulfonyl)-hexahydro-pyrrolo[3,2-b]pyrrole-1-carboxylic acid benzyl ester]
531	C=CC[C@H]1C(=O)N(S(=O)(=O)c2ccccc2)[C@H]2CCN(C(=O)OCc3ccccc3)[C@H]12 (relative stereo) [Example 45, rel-(3aS,6R,6aR)-6-Allyl-4-benzenesulfonyl-5-oxo-hexahydro-pyrrolo[3,2-b]pyrrole-1-carboxylic acid benzyl ester]
143	CCC[C@H]1C(=O)N(S(C)(=O)=O)[C@H]2CCN(C(=O)CCN3CCOCC3)[C@H]12 (relative stereo) [Example 46, rel-(3R,3aR,6aS)-1-Methanesulfonyl-4-(3-morpholin-4-yl-propionyl)-3-propyl-hexahydro-pyrrolo[3,2-b]pyrrol-2-one]
109	CCC[C@H]1C(=O)N(S(C)(=O)=O)[C@H]2CCN(C(=O)CCCN3CCOCC3)[C@H]12 (relative stereo) [Example 47, rel-(3R,3aR,6aS)-1-Methanesulfonyl-4-(4-morpholin-4-yl-butyryl)-3-propyl-hexahydro-pyrrolo[3,2-b]pyrrol-2-one]
122	CCC[C@H]1C(=O)N(S(=O)(=O)c2ccc3ccccc3c2)[C@H]2CCN(C(=O)CCc3ccccn3)[C@H]12 (relative stereo) [Example 48, rel-(3R,3aR,6aS)-1-(Naphthalene-2-sulfonyl)-3-propyl-4-(3-pyridin-2yl-propionyl)-hexahydro-pyrrolo[3,2-b]pyrrol-2-one]
412	C=CC[C@H]1C(=O)N(S(=O)(=O)c2cccc3cccnc23)[C@H]2CCN(C(=O)OCc3ccccc3)[C@H]12 (relative stereo) [Example 49, rel-(3aS,6R,6aR)-6-Allyl-5-oxo-4-(quinoline-8-sulfonyl)-hexahydro-pyrrolo[3,2-b]pyrrole-1-carboxylic acid benzyl ester]
362	CCC[C@H]1C(=O)N(S(=O)(=O)c2cccc3c2NCCC3)[C@H]2CCN(C(=O)OCc3ccccc3)[C@H]12 (relative stereo) [Example 50, rel-(3aS,6R,6aR)-5-Oxo-6-propyl-4-(1,2,3,4-tetrahydro-quinoline-8-sulfonyl-hexahydro-pyrrolo[3,2-b]pyrrole-1-carboxylic acid benzyl ester]
55	CCC[C@H]1C(=O)N(S(=O)(=O)c2cccc3cnccc23)[C@H]2CCN(S(C)(=O)=O)[C@H]12 (relative stereo) [Example 51, rel-(3R,3aR,6aS)-1-(Isoquinoline-5-sulfonyl)-4-methanesulfonyl-3-propyl-hexahydro-pyrrolo[3,2-b]pyrrol-2-one]
222	CCC[C@H]1C(=O)N(S(=O)(=O)c2cccc3cccnc23)[C@H]2CCN(S(C)(=O)=O)[C@H]12 (relative stereo) [Example 52, rel-(3R,3aR,6aS)-4-Methanesulfonyl-3-propyl-1-(quinoline-8-sulfonyl)-hexahydro-pyrrolo[3,2-b]pyrrol-2-one]
26	CCC[C@H]1C(=O)N(S(C)(=O)=O)[C@H]2CCN(C(=O)CCCCCCCCCN3CCOCC3)[C@H]12 (relative stereo) [Example 64, rel-(3R,3aR,6aS)-1-Methanesulfonyl-4-(10-morpholin-4-yl-decanoyl)-3-propyl-hexahydro-pyrrolo[3,2-b]pyrrol-2-one DL-tartrate]
66	CCC[C@H]1C(=O)N(S(C)(=O)=O)[C@H]2CCN(C(=O)CCCCCCCCCN(CC)CC)[C@H]12 (relative stereo) [Example 65, rel-(3R,3aR,6aS)-4-(10-Diethylamino-decanoyl)-1-methanesulfonyl-3-propyl-hexahydro-pyrrolo[3,2-b]pyrrol-2-one DL-tartrate]
